The values below come from patent US20260083708A1, “IL-17 MODULATORS AND USES THEREOF” (NNOCARE PHARMA INC., priority 2024, published 2026).

The test system of experiment [1] is IL-17AA-induced IL-17 signaling pathway. Kind of experiment: Inhibition of IL-17AA-induced IL-17 signaling pathway in HEK-Blue IL-17 reporter cells (SEAP). Format: cell-based. The settings on record: Homo sapiens; HEK-Blue IL-17 cells, IL-17AA 2.5 ng/mL, 20 hours; read-out: IC50 for Inhibiting IL-AA Signaling. From the text:
Example 43. Inhibition of IL-17AA-Induced IL-17 Signaling Pathway
(§1) Interleukin-17 (IL-17) reporter cell line (HEK-Blue IL-17, InvivoGen, Catalog Number hkb-i117) is created by genetically engineering human IL-17RA/IL-17RC heterodimeric receptor and downstream adapter protein ACT1 into human embryonic kidney 293 cells (HEK293). These cells also express secreted embryonic alkaline phosphatase (SEAP) reporter gene induced by NF-κB and AP-1. Therefore, IL-17AA can activate NF-κB and AP-1 signaling pathways inside the cells by binding to IL-17RA/RC on cell membrane, leading to expression of SEAP protein. After a colorimetric reaction between SEAP protein and Quanti-Blue solution, the absorbance at 620 nm is measured using a microplate reader (BioTek H1M, Agilent, Catalog Number SH1M-SN) to determine IL-17AA-activated signaling pathway.
(§2) In the experiment, HEK-Blue IL-17 cells were cultured at 37° C. under 5% CO2 conditions using the recommended medium from InvivoGen's instruction. Compounds were serially diluted starting from 10 μM. 4 μL of each compound solution was added to 32 μL of cells (10,000 cells) at 37° C. for 1 hour. After pre-incubation, 4 μL of IL-17AA with a final concentration of 2.5 ng/mL (Sino Biological, Catalog Number 12047-HNAS) was added to the cells, and incubation was continued for additional 20 hours. After incubation, 5 μL of cell culture supernatant was added to 45 μL of Quanti-Blue for the colorimetric reaction. The group without tested compound had the highest absorbance at 620 nm, and the group without IL-17AA had the lowest absorbance at 620 nm.
(§3) Therefore, the percentage of inhibition of tested compound was calculated as
(§4) Experimental results were analyzed using XLfit (IDBS) for 4-parameter nonlinear fitting analysis to provide the IC50 value for each tested compound (Table 1).

The next experiment deals with T1, IL-17AA and IL-17RA (Homo sapiens, UniProt Q16552).
T1 construct: purchased Sino Biological 12047-H07B (IL-17AA); 10895-H02H (IL-17RA)
T1 sequence (Q16552 24-155): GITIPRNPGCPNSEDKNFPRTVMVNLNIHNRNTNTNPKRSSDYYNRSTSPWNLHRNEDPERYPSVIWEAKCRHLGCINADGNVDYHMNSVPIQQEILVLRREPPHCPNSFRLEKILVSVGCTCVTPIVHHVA
The experiment in a line: Competitive inhibition of human IL-17AA and IL-17RA binding (HTRF). Conditions: recombinant IL-17AA (His-tag) and IL-17RA (hFc-tag); read-out: IC50 for Inhibiting IL-AA/IL-RA Binding. How it is done:
Example 42. Competitive Inhibition of Human IL-17AA and IL-17RA Binding
Recombinant IL-17AA (His-tag, Catalog Number 12047-H07B) and IL-17RA (hFc-tag, Catalog Number 10895-H02H) were purchased from Sino Biological. In the experiment, 10 μL of IL-17AA (1 nM) or IL-17RA (1 nM) was added to 10 μL of anti-6His-Tb (0.4 nM, Revvity, Catalog Number 61HISTLF) or anti-human IgG-d2 (1 μg/mL, anti-human IgG-d2, Revvity, Catalog Number 61HFCDAF), respectively and incubated at room temperature for 1 hour. Compounds were serially diluted starting from 10 μM. 5 μL of each compound solution was incubated with 5 μL of a mixture of IL-17AA and anti-6His-Tb at room temperature for 2 hours. After pre-incubation, to which was added 10 μL of a mixture of IL-17RA and anti-human IgG-d2, and incubation was continued for additional 20 minutes. Subsequently, a microplate reader (Envision, PerkinElmer) was used to detect fluorescence intensity at 615 nm and 665 nm, and the ratio of intensity thereof indicates the degree of IL-17AA and IL-17RA interaction. The ratio of intensity in the absence of tested compound was the highest value of binding between IL-17AA and IL-17RA, and the ratio of intensity in the absence of IL-17AA was the lowest value.
as §3
Experimental results were analyzed using XLfit (IDBS) for 4-parameter nonlinear fitting analysis, to provide the IC50 value for each tested compound (Table 1).

Experiment [2] relates to IL-17AF-induced IL-17 signaling pathway. The experiment in a line: Inhibition of IL-17AF-induced IL-17 signaling pathway. The class given is cell-based. Conditions: Homo sapiens; IL-17AF used instead of IL-17AA; read-out: IC50 for Inhibiting IL-AF Signaling.
Description: as §1, §2, §3, §4
Example 44. Inhibition of IL-17AF-Induced IL-17 Signaling Pathway
The same experimental procedure to Example […] was followed where IL-17AF was used instead of IL-17AA.

The structures appear in SMILES notation.

With `CCC(=O)N[C@@H](c1nncn1CC1CC1)[C@@H](C)c1ccc(NC(=O)[C@@H](NC(=O)c2ccnn2CC)C(C2CC2)C2CC2)c(F)c1` [Compound 1, N-((S)-1,1-dicyclopropyl-3-((4-((1R,2S)-1-(4-(cyclopropylmethyl)-4H-1,2,4-triazol-3-yl)-1-propionamidopropan-2-yl)-2-fluorophenyl)amino)-3-oxopropan-2-yl)-1-ethyl-1H-pyrazole-5-carboxamide], the IC50 in experiment [1] worked out at 13 nM; on IL-17AA and IL-17RA, 27 nM; in experiment [2] it was 49 nM.
The matching figures for `CCn1nccc1C(=O)N[C@H](C(=O)Nc1ccc([C@H](C)[C@@H](NC(C)=O)c2nncn2CC2CC2)cc1F)C(C1CC1)C1CC1` [Compound 2, N-((S)-1-((4-((1R,2S)-1-acetamido-1-(4-(cyclopropylmethyl)-4H-1,2,4-triazol-3-yl)propan-2-yl)-2-fluorophenyl)amino)-3,3-dicyclopropyl-1-oxopropan-2-yl)-1-ethyl-1H-pyrazole-5-carboxamide]: 50 nM, 12 nM and 99 nM.
In the same order, the values of `CCn1nccc1C(=O)N[C@H](C(=O)Nc1ccc([C@H](C)[C@@H](NC(=O)COC)c2nncn2CC2CC2)cc1F)C(C1CC1)C1CC1` [Compound 3, N-((S)-1,1-dicyclopropyl-3-((4-((1R,2S)-1-(4-(cyclopropylmethyl)-4H-1,2,4-triazol-3-yl)-1-(2-methoxyacetamido)propan-2-yl)-2-fluorophenyl)amino)-3-oxopropan-2-yl)-1-ethyl-1H-pyrazole-5-carboxamide] are 4.1 nM, 7.3 nM and 25 nM.
The matching figures for `COCC(=O)N[C@@H](c1nncn1CC1CC1)[C@@H](C)c1ccc(NC(=O)[C@@H](NC(=O)c2ccnn2C(C)C)C(C2CC2)C2CC2)c(F)c1` [Compound 4, N-((S)-1,1-dicyclopropyl-3-((4-((1R,2S)-1-(4-(cyclopropylmethyl)-4H-1,2,4-triazol-3-yl)-1-(2-methoxyacetamido)propan-2-yl)-2-fluorophenyl)amino)-3-oxopropan-2-yl)-1-isopropyl-1H-pyrazole-5-carboxamide]: 17 nM, 10 nM and 20 nM.
For `CCn1nccc1C(=O)N[C@H](C(=O)Nc1ccc([C@H](C)[C@@H](NC(=O)COC)c2nncn2C)cc1F)C(C1CC1)C1CC1` [Compound 6, N-((S)-1,1-dicyclopropyl-3-((2-fluoro-4-((1R,2S)-1-(2-methoxyacetamido)-1-(4-methyl-4H-1,2,4-triazol-3-yl)propan-2-yl)phenyl)amino)-3-oxopropan-2-yl)-1-ethyl-1H-pyrazole-5-carboxamide], the IC50 was determined as 146 nM in experiment [1]; 66 nM on IL-17AA and IL-17RA; 516 nM in experiment [2].
In the same order, the values of `COCC(=O)N[C@@H](c1nncn1CC1CC1)[C@@H](C)c1ccc(NC(=O)[C@@H](NC(=O)C(F)(F)c2ccc(OC)nc2)C(C2CC2)C2CC2)c(F)c1` [Compound 7, (S)-3,3-dicyclopropyl-N-(4-((1R,2S)-1-(4-(cyclopropylmethyl)-4H-1,2,4-triazol-3-yl)-1-(2-methoxyacetamido)propan-2-yl)-2-fluorophenyl)-2-(2,2-difluoro-2-(6-methoxypyridin-3-yl)acetamido)propanamide] are 3.9 nM, 5.2 nM and 8.9 nM.
The matching figures for `COCC(=O)N[C@@H](c1nncn1CC1CC1)[C@@H](C)c1ccc(NC(=O)[C@@H](NC(=O)COc2cc(C(F)F)on2)C(C2CC2)C2CC2)c(F)c1` [Compound 8]: 35 nM, 13 nM and 73 nM.
